The text below walks through data of patent US20140263071A1, “METHOD FOR COLLECTING METALS” (CHEMEC OY AB, priority 2011, published 2014).

The nature of data set [1]: Solubility of the compounds, molybdenum blue method, UV/Vis 880 nm (Example 6). The format is physicochemical. The settings on record: saturated aqueous solution. The source says: The low solubility is achieved by using long carbon chain(s) or aromatic ring(s) in the bisphosphonate structure I. Advantageously, compound I contains 7-16 carbon atoms either in chain, branched chain or cyclic structure or in combination of these structural units between A and X, and preferably in the chain starting from the P-C-P bridging carbon and the number of heteroatomic functional groups excluding the phosphorous functionalities are limited to two or three groups. The solubility decreases even more if compound I contains functional groups which are capable to form twitter ions with each other. Typical examples of twitter ions are acids (e.g., —CO2H or —PO3H2) and bases (amines) in the same molecule. Solubilities of selected bisphosphonate compounds I were determined with UV/Vis spectrophotometer at 880 nm using molybdenum blue method (Finnish Standard Association SFS 3026: Determination of phosphate in water. Finnish Standard Association SFS, Helsinki Finland, 1986).
Solubilities of selected compounds were determined with UV/Vis Spectrophotometer at 880 nm using molybdenum blue method from saturated aqueous samples solutions (Finnish Standard Association SFS 3026: Determination of phosphate in water. Finnish Standard Association SFS, Helsinki Finland, 1986).

The nature of data set [2]: Expulsion of Cu^2+, Ni^2+ and Fe^3+ without and with activated carbon (Example 9). Particulars: pH 3, without activated carbon. On the procedure: (§1) A water solution (110 ml) containing known amount of single cationic element or elements, typically 0.5-200 ppm, was prepared from Merch Titrisol® standard solution. After adjusting pH by using acid (e.g. HCl or HNO3) or base (e.g. NaOH) to desired initial value, sample A (10 ml) was taken followed by adding 100 mg of selected solid complexation agent. The mixture was stirred at room temperature for 24 h and sample B (10 ml) was taken. Samples A and B were filtrated separately trough 0.2 μm syringe filter and the concentration of the studied element or elements in both solution was determined by using atomic absorption spectrophotometer. The expulsion percent was determined from the concentration differences between the sample solutions A and B.
Using the general procedure described above expulsion percent of Cu^2+, Ni^2+ and Fe^3+ cations were determined at pH 3, when compounds 2a, 2b, 5b, 6b and 6c were used as complexation agents. Experiments were repeated also by adding activated carbon (100 mg) to solution at the same time with the used complexation agent.

Data set [3] is described as follows: Collection of Cu^2+ ions from solution with the prepared bisphosphonates (Example 26). Particulars: 1.00 ppm Cu^2+; pH 3; 50 mg bisphosphonate in 50 ml. On the procedure:
as §1
A solution containing 1.00 ppm of Cu^2+ cations at pH 3 was prepared and 50 ml of that solution was treated with the desired solid bisphosphonate (50 mg) using the procedure described in general procedure. Collection-% was determined for the following compounds (Cu^2+ collection-% in parenthesis): 3a (16%), 3b (88%), 3c (93%), 4 (95%), 5a (20%), 5b (18%), 5c (85%), 6b (48%), 6c (100%), 6d (100%), 7a (88%), 7b (100%), 8b (85%), 8c (88%), 8d (94%), 8e (73%) and 9b (76%).

Data set [4] can be described thus: Removal of Cr^3+ from acidic solution, TS 4 diluted 1:100 (Example 19). Particulars: TS 4 diluted 1:100, pH 3.67, 1.0 g agent in 50 ml, 24 h. On the procedure:
A test solution containing 24000 mg/l of Na^+; 50-2000 mg/l of Ca^2+, Cr^3+, K^+ and Mg^2+; and trace amount of Al^3+, Fe^2/3+, Mn^2+, Ni^2+, Sr^2+, V^4+, and Zn^2+ cations were prepared.
TS 4 was diluted to 1:100 with water, pH (3.67) of the solution was determined and sample A was taken. A part (50 ml) of the diluted solution was treated with 1a, 6d or 7a (1.0 g) for 24 h with stirring at room temperature. After filtration trough 0.2 μm syringe filter, the expulsion per for Cr(III) was determined compared to original solution A. The results of expulsion per cents of Cr^3+ and some other elements are given in Table 13.

[5] abbreviates: read-out: mg/l (solubility calculated for whole molecule).
[6] abbreviates: read-out: mg/l P (solubility calculated as elemental phosphorus).

SMILES strings stand for the structures. Like-named read-outs stand apart in the source and are kept apart here.

For `NCCCCCCCC(O)(P(=O)(O)O)P(=O)(O)O` [Compound 1b, 8-Amino-1-hydroxyoctane-1,1-diyldiphosphonic acid], the solubility is 2220 mg/L in data set [1] (setting [5]) and 426 mg/L in data set [1] (setting [6]).

Take `NCCCCCCCCC(O)(P(=O)(O)O)P(=O)(O)O` [Compound 1c, 9-Amino-1-hydroxynonane-1,1-diyldiphosphonic acid]: the solubility in data set [1] (setting [5]) was 2180 mg/L; in data set [1] (setting [6]), 400 mg/L.

In the case of `NCCCCCCCCCC(O)(P(=O)(O)O)P(=O)(O)O` [Compound 1d, 10-Amino-1-hydroxydecane-1,1-diyldiphosphonic acid], the solubility in data set [1] (setting [5]) is 227 mg/L; in data set [1] (setting [6]) it was 40 mg/L.

Regarding `NCCCCCCCCCCCCCCCC(O)(P(=O)(O)O)P(=O)(O)O` [Compound 1f, 16-Amino-1-hydroxyhexadecane-1,1-diyldiphosphonic acid], the solubility in data set [1] (setting [5]) was 42 mg/L; in data set [1] (setting [6]), 6 mg/L.

With `CNCCCCCCCCCCC(O)(P(=O)(O)O)P(=O)(O)O` [Compound 2a, 1-Hydroxy-11-(methylamino)undecane-1,1-diyldiphosphonic acid], in data set [1] (setting [5]), the solubility was 594 mg/L. Moreover, the solubility in data set [1] (setting [6]) is 97 mg/L. Besides, in data set [2], the “Expulsion [%] Cu^2+” value stood at 16.4%, the “Expulsion [%] Fe^3+” value is 44.7% and the “Expulsion [%] Ni^2+” value turned out to be 13.3%.

Turning to `O=P(O)(O)C(O)(CCCCCCCCCCO)P(=O)(O)O` [Compound 2b, 1,11-Dihydroxyundecane-1,1-diyldiphosphonic acid], the solubility in data set [1] (setting [5]) was 22900 mg/L. Also, in data set [1] (setting [6]), the solubility is 3870 mg/L. In data set [2], the “Expulsion [%] Cu^2+” value was determined as 100.0%, the “Expulsion [%] Fe^3+” value worked out at 92.6% and the “Expulsion [%] Ni^2+” value is on record as 6.9%.

For the compound `CCCCCC(O)(P(=O)(O)O)P(=O)(O)O` [Compound 3a, 1-Hydroxyhexane-1,1-diyldiphosphonic acid], the solubility in data set [1] (setting [5]) is 54 mg/L; in data set [1] (setting [6]) it was 12 mg/L. The “Cu^2+ collection-%” value in data set [3] is 16%.

For `CCCCCCCCC(O)(P(=O)(O)O)P(=O)(O)O` [Compound 3b, 1-Hydroxynonane-1,1-diyldiphosphonic acid], the solubility in data set [1] (setting [5]) is 5 mg/L; in data set [1] (setting [6]), 1 mg/L. In addition, the “Cu^2+ collection-%” value in data set [3] came to 88%.

On to `CCCCCCCCCCC(O)(P(=O)(O)O)P(=O)(O)O` [Compound 3c, 1-Hydroxyundecane-1,1-diyldiphosphonic acid], for which the solubility in data set [1] (setting [6]) is 0.3 mg/L. Also, in data set [3], the “Cu^2+ collection-%” value is listed as 93%.

For `CCCCCCCC/C=C\CCCCCCCC(O)(P(=O)(O)O)P(=O)(O)O` [Compound 4, (Z)-1-Hydroxyoctadec-9-ene-1,1-diyldiphosphonic acid], the “Cu^2+ collection-%” value in data set [3] is reported as 95%.

With `O=P(O)(O)C(O)(CCCCc1ccccc1)P(=O)(O)O` [Compound 5a, 1-Hydroxy-5-phenylpentane-1,1-diyldiphosphonic acid], the solubility in data set [1] (setting [6]) is 1.8 mg/L. In data set [3], the “Cu^2+ collection-%” value was 20%.

With `Nc1ccc(CCCC(O)(P(=O)(O)O)P(=O)(O)O)cc1` [Compound 5b, 4-(4-Aminophenyl)-1-hydroxybutane-1,1-diyldiphosphonic acid], the solubility in data set [1] (setting [6]) was 79 mg/L. For the same compound, in data set [2], the “Expulsion [%] Cu^2+” value was 21.4%, the “Expulsion [%] Fe^3+” value came out at 56.3% and the “Expulsion [%] Ni^2+” value was 7.9%. Besides, the “Cu^2+ collection-%” value in data set [3] turned out to be 18%.

With `O=P(O)(O)C(O)(CCCCCCc1ccccc1)P(=O)(O)O` [Compound 5c, 1-Hydroxy-7-phenylheptane-1,1-diyldiphosphonic acid], the solubility in data set [1] (setting [6]) was 0.2 mg/L. Further, the “Cu^2+ collection-%” value in data set [3] worked out at 85%.

`CCCCCCCCCCC(P(=O)(O)O)P(=O)(O)O` [Compound 6b, Undecane-1,1-diyldiphosphonic acid]: in data set [1] (setting [6]), the solubility is 0.7 mg/L. In addition, in data set [2], the “Expulsion [%] Cu^2+” value is given as 1.3%, the “Expulsion [%] Fe^3+” value is given as 3.9% and the “Expulsion [%] Ni^2+” value is listed as 17.2%. The “Cu^2+ collection-%” value in data set [3] is 48%.

On to `CCCCCCCCCCCCC(P(=O)(O)O)P(=O)(O)O` [Compound 6c, Tridecane-1,1-diyldiphosphonic acid], for which, in data set [1] (setting [6]), the solubility was 0.2 mg/L. Besides, in data set [2], the “Expulsion [%] Cu^2+” value worked out at 20.8%, the “Expulsion [%] Fe^3+” value came to 19.0% and the “Expulsion [%] Ni^2+” value is listed as 20.8%. Moreover, the “Cu^2+ collection-%” value in data set [3] is 100%.

`CCCCCCCCCCCCCCCCC(P(=O)(O)O)P(=O)(O)O` [Compound 6d, Heptadecane-1,1-diyldiphosphonic acid]: in data set [1] (setting [6]), the solubility is 0.03 mg/L. The “Expulsion [%] Ca^2+” value in data set [4] (Ca^2+) is 11%. The “Expulsion [%] Cr^3+” value in data set [4] was found to be 100%. The “Expulsion [%] K^+” value in data set [4] (K^+) was 52%. Besides, in data set [4] (Mg^2+), the “Expulsion [%] Mg^2+” value came out at 80%. Moreover, in data set [4] (Na^+), the “Expulsion [%] Na^+” value came out at 39%. In data set [3], the “Cu^2+ collection-%” value amounted to 100%.

Take `CCCCCCCCC(N)(P(=O)(O)O)P(=O)(O)O` [Compound 7a, 1-Aminononane-1,1-diyldiphosphonic acid]: in data set [1] (setting [6]), the solubility is 0.08 mg/L. Besides, in data set [4], the “Expulsion [%] Cr^3+” value stood at 85%. For the same compound, the “Cu^2+ collection-%” value in data set [3] is 88%.

Consider `CCCCCCCCCC(N)(P(=O)(O)O)P(=O)(O)O` [Compound 7b, 1-Aminodecane-1,1-diyldiphosphonic acid], for which the solubility in data set [1] (setting [6]) was 0.05 mg/L. Moreover, the “Cu^2+ collection-%” value in data set [3] is listed as 100%.

For `C[N+](C)(C)CCCCCCCCCCC(O)(P(=O)(O)O)P(=O)(O)O.[Cl-]` [Compound 8b, 11-Hydroxy-N,N,N-trimethyl-11,11-diphosphonoundecan-1-aminium chloride], the “Cu^2+ collection-%” value in data set [3] is reported as 85%.

As to `CC(=O)NCCCCCCCCCCC(O)(P(=O)(O)O)P(=O)(O)O` [Compound 8c, 11-Acetamido-1-hydroxyundecane-1,1-diyldiphosphonic acid], the “Cu^2+ collection-%” value in data set [3] is listed as 88%.

For `O=C(O)CCCCCCCCCCSCC(P(=O)(O)O)P(=O)(O)O` [Compound 8d, 11-((2,2-diphosphonoethyl)thio)undecanoic acid], the “Cu^2+ collection-%” value in data set [3] is given as 94%.

As for `O=C(O)CCCCCNCC(P(=O)(O)O)P(=O)(O)O` [Compound 8e, 6-((2,2-diphosphonoethyl)amino)hexanoic acid], the “Cu^2+ collection-%” value in data set [3] is given as 73%.

Turning to `CCCCCCCCCCCC(=O)OC(C)(P(=O)(O)O)P(=O)(O)O` [Compound 9b, 1-(Dodecanoyloxy)ethane-1,1-diyldiphosphonic acid], the “Cu^2+ collection-%” value in data set [3] stood at 76%.
